Test results as given in US10059713B2 (Takeda Pharmaceutical Company Limited, priority 2014, dated 2018).
pEC50: −log10 of the molar value.

Biological target: human GPR43 (Homo sapiens (Human), UniProt O15552)
Test: Ca-Flux functional assay: determination of agonist/positive allosteric modulator (PAM) activity
Format: cell-based
Details: CHO-K1 Gα16 cells stably expressing human GPR43; compound added with EC20 sodium acetate; intracellular Ca2+ by FLIPR; does not distinguish agonist from PAM
In short: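 CHO-K1 Gα16 cells stably expressing human GPR43, loaded with Calcium 5 dye 1 h; compounds (10-point half-log from 10 μM) added with sodium acetate at EC20. FLIPR calcium signal gave EC50, two wells per point; agonists and PAMs not distinguished.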

Sequence of human GPR43 (O15552 whole entry): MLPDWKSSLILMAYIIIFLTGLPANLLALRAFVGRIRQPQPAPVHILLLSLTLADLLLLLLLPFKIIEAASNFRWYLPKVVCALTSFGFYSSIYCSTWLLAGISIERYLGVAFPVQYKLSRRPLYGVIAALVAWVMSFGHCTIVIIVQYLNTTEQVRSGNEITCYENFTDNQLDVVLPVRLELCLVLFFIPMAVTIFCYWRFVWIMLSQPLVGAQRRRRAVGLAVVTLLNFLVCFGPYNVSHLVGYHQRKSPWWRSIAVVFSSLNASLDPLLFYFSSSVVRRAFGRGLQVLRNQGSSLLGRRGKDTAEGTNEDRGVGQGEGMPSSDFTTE

| pEC50 | SMILES |
| --- | --- |
| 8.10 | CC1CN(c2ncnc3c(S(=O)(=O)c4ccccc4)c(N)[nH]c23)CCS1 (stereo not drawn) [Example 195, 7-(benzenesulfonyl)-4-(2-methylthiomorpholin-4-yl)-5H-pyrrolo[3,2-d]pyrimidin-6-amine] |
| 8.70 | Cc1nc(N2CCO[C@@H](C)C2)c2[nH]c(N)c(S(=O)(=O)c3ccc(Br)cc3F)c2n1 [Example 239, 7-(4-bromo-2-fluorobenzenesulfonyl)-2-methyl-4-[(2S)-2-methylmorpholin-4-yl]-5H-pyrrolo[3,2-d]pyrimidin-6-amine] |
| 7.21 | Nc1[nH]c2c(N3CCOC4CCCC43)ncnc2c1S(=O)(=O)c1ccccc1 (stereo not drawn) [Example 215, 7-(benzenesulfonyl)-4-{octahydrocyclopenta[b]morpholin-4-yl}-5H-pyrrolo[3,2-d]pyrimidin-6-amine] |
| 7.20 | Cc1nc(OC2CCOC(C)(C)C2)c2[nH]c(N)c(S(=O)(=O)c3ccccc3F)c2n1 (stereo not drawn) [Example 273, -[(2,2-dimethyloxan-4-yl)oxy]-7-(2-fluorobenzenesulfonyl)-2-methyl-5H-pyrrolo[3,2-d]pyrimidin-6-amine] |
| 7.77 | CC1CN(c2nc(C(F)(F)F)nc3c(S(=O)(=O)c4ccccc4F)c(N)[nH]c23)CCO1 (stereo not drawn) [Example 268, 7-(2-fluorobenzenesulfonyl)-4-(2-methylmorpholin-4-yl)-2-(trifluoromethyl)-5H-pyrrolo[3,2-d]pyrimidin-6-amine] |
| 8.52 | Cc1nc(N2CCO[C@H](C(F)(F)F)C2)c2[nH]c(N)c(S(=O)(=O)c3cc(F)ccc3F)c2n1 [Example 292] |
| 5.71 | CN(c1ncnc2c(S(=O)(=O)c3ccccc3)c(N)[nH]c12)C1CCOC(C)(C)C1 (stereo not drawn) [Example 189, 7-(benzenesulfonyl)-4-N-(2,2-dimethyloxan-4-yl)-4-N-methyl-5H-pyrrolo[3,2-d]pyrimidine-4,6-diamine] |

Further lines, the compound ahead of its results:

| SMILES | pEC50 |
| --- | --- |
| CC(Oc1ncnc2c(S(=O)(=O)c3ccccc3)c(N)[nH]c12)C1CC1 (stereo not drawn) [Example 170, 7-(benzenesulfonyl)-4-(1-cyclopropylethoxy)-5H-pyrrolo[3,2-d]pyrimidin-6-amine] | 7.40 |
| COc1ccc(S(=O)(=O)c2c(N)[nH]c3c(N4C[C@@H](C)O[C@@H](C)C4)ncnc23)cc1 [Example 130, 4-[(2R,6S)-2,6-dimethylmorpholin-4-yl]-7-(4-methoxybenzenesulfonyl)-5H-pyrrolo[3,2-d]pyrimidin-6-amine] | 7.70 |
| COc1ccc(S(=O)(=O)c2c(N)[nH]c3c(N4CCC5(CC4)CC5)ncnc23)cc1 [Example 72, 4-{6-azaspiro[2.5]octan-6-yl}-7-(4-methoxybenzenesulfonyl)-5H-pyrrolo[3,2-d]pyrimidin-6-amine] | 7.59 |
| Nc1[nH]c2c(C3=CCCCC3)cncc2c1S(=O)(=O)c1ccccc1 [Example 16, 3-(benzenesulfonyl)-7-(cyclohex-1-en-1-yl)-1H-pyrrolo[3,2-c]pyridin-2-amine] | 7.68 |
| Cc1nc(N2CCOC(C)(C)C2)c2[nH]c(N)c(S(=O)(=O)c3ccccc3)c2n1 [Example 139, 7-(benzenesulfonyl)-4-(2,2-dimethylmorpholin-4-yl)-2-methyl-5H-pyrrolo[3,2-d]pyrimidin-6-amine] | 7.89 |
| Nc1[nH]c2c(N3CCCCC3)ncnc2c1S(=O)(=O)c1ccccc1 [Example 7, 7-(benzenesulfonyl)-4-(piperidin-1-yl)-5H-pyrrolo[3,2-d]pyrimidin-6-amine] | 7.33 |
| CN(c1ncnc2c(S(=O)(=O)c3ccccc3)c(N)[nH]c12)C1CCOCC1 [Example 115, 7-(benzenesulfonyl)-4-N-methyl-4-N-(oxan-4-yl)-5H-pyrrolo[3,2-d]pyrimidine-4,6-diamine] | 6.10 |
| Nc1[nH]c2c(OCC3CC3(F)F)ncnc2c1S(=O)(=O)c1ccccc1 (stereo not drawn) [Example 175, 7-(benzenesulfonyl)-4-[(2,2-difluorocyclopropyl)methoxy]-5H-pyrrolo[3,2-d]pyrimidin-6-amine] | 6.43 |
